From BindingDB's records for patent US11026923 (H. Lundbeck, 2021) come the findings set out here.

The term IC50 denotes the concentration at which inhibition is half-maximal.

What all share (assay): Inhibition Assay
The target in assay [1] is Dual specificity calcium/calmodulin-dependent 3',5'-cyclic nucleotide phosphodiesterase 1C (Human, UniProt Q14123).
Protocol: (§1) Reactions were initiated by addition of the cyclic nucleotide substrate, and reactions were allowed to proceed for 1 hr at room temperature before being terminated through mixing with 20 uL (0.2 mg) yttrium silicate SPA beads (PerkinElmer).
The target of assay [2] is Dual specificity calcium/calmodulin-dependent 3',5'-cyclic nucleotide phosphodiesterase 1B (Homo sapiens, UniProt Q01064).
Protocol: as §1
The target of assay [3] is Dual specificity calcium/calmodulin-dependent 3',5'-cyclic nucleotide phosphodiesterase 1A (Human, UniProt P54750).
Chain of Dual specificity calcium/calmodulin-dependent 3',5'-cyclic nucleotide phosphodiesterase 1A (P54750 whole entry): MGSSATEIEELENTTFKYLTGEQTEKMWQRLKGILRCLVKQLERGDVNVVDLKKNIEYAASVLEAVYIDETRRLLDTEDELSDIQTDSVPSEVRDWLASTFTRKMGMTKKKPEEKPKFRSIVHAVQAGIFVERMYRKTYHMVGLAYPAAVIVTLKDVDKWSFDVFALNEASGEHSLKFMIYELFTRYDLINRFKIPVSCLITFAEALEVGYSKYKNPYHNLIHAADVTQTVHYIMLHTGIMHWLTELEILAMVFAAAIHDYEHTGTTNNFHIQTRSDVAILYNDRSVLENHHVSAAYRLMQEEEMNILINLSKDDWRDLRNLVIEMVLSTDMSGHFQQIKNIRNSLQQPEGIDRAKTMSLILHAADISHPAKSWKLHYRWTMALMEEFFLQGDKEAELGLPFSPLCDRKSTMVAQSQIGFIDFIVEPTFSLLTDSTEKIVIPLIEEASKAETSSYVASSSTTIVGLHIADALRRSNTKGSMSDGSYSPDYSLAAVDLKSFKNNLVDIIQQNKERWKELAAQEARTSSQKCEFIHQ
Protocol: as §1

Chain of Dual specificity calcium/calmodulin-dependent 3',5'-cyclic nucleotide phosphodiesterase 1B (Q01064 whole entry): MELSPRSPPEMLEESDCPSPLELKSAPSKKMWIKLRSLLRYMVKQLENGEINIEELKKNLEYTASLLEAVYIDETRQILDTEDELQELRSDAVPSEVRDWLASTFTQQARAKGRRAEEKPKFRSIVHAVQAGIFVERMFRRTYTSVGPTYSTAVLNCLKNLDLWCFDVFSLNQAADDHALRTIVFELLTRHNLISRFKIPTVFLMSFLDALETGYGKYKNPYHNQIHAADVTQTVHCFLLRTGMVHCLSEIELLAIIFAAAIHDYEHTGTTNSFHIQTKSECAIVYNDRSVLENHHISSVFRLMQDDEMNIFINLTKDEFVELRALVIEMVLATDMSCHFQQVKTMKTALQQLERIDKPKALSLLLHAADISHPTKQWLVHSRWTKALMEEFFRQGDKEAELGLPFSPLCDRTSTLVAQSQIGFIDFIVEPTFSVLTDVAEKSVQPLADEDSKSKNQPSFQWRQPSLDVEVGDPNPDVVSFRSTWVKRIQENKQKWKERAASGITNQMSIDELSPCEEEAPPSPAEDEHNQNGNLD
Chain of Dual specificity calcium/calmodulin-dependent 3',5'-cyclic nucleotide phosphodiesterase 1C (Q14123 whole entry): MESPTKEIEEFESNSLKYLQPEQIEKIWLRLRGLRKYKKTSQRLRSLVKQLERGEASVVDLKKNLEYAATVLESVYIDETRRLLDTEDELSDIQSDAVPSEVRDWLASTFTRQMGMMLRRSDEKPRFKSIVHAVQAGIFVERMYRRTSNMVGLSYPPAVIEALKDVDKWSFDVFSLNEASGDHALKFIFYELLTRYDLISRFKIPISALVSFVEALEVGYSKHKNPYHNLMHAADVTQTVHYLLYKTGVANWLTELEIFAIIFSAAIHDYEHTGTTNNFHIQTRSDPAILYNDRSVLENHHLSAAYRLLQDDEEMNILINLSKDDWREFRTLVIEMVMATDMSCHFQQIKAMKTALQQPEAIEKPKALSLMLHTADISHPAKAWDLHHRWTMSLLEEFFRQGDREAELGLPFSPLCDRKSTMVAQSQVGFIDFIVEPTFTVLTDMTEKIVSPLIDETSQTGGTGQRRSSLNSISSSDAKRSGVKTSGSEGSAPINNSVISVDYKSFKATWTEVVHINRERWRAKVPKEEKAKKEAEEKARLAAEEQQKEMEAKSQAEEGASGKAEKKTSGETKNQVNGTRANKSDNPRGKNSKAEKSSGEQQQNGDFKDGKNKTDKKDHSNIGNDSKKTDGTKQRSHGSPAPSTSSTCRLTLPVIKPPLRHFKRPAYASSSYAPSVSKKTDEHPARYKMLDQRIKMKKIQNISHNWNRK

With `CC1=NN(C(C)C)/C(=C(/C=C/c2cn(C)nc2C)NCc2cnn(C)c2)C1` [US11026923, Example 61], the IC50 in assay [1] was 680 nM; in assay [2], 120 nM; in assay [3], 550 nM.
For the compound `COc1ncccc1/C=C/C(NCc1cnn(C)c1)=C1\CC(C)=NN1C(C)C` [US11026923, Example 62], the IC50 was 21 nM in assay [1], 2.4 nM in assay [2] and 16 nM in assay [3].
For `COc1ccccc1/C=C/C(NCc1cnn(C)c1)=C1\CC(C)=NN1C(C)C` [US11026923, Example 63], in that order: 20 nM, 9.4 nM and 64 nM.
On the same counts, the results for `CC1=NN(C(C)C)/C(=C(/C=C/c2ccccc2)NCc2cnn(C)c2)C1` [US11026923, Example 64] are 47 nM, 12 nM and 52 nM.
Take `CC1=NN(C(C)C)/C(=C(/C=C/c2ccsc2C)NCc2cnn(C)c2)C1` [US11026923, Example 65]: the figures for the IC50 in assay [2] and in assay [3] were 1.2 nM and 7.9 nM, respectively.
Regarding `CC1=NN(C(C)C)/C(=C(/C=C/c2cnn(C)c2C)NCc2cnn(C)c2)C1` [US11026923, Example 66], the values for the IC50 in assay [1], in assay [2] and in assay [3] were 220 nM, 59 nM and 210 nM, respectively.
